A short description of data set [1]: Average score of NAC and NAL depletion and prediction of skin allergenicity, UV method. The conditions noted are these: for Average score: test substance solution 1 mmol/L; for Mean Depletion (%) (average score) / determination of skin allergenicity from average score: UV method; for determination of skin allergenicity from average score: criterion […]. On the procedure:
(§1) The average value (Average Score) of NAC and NAL depletion percents is calculated. In the resultant value, the second decimal place is rounded off.
(§2) Average value (Average Score) of NAC and NAL depletion percents=(NAC depletion percent+NAL depletion percent)/2
(§3) The depletion percent of at least one of NAC or NAL or the average score of the depletion percents of NAC and NAL is calculated, and whether or not the test substances are “allergenic substances” or “non-allergenic substances” is determined:
(§4) (1) in a case of performing evaluation based on the average value of the depletion percent of NAC and the depletion percent of NAL,
(§5) In the following Tables, S represents as being an allergenic substance and NS represents as being a non-allergenic substance.

Data set [2] in a line: NAL depletion percent, HPLC-fluorescence detection. On the procedure:
(§6) 1) To a 50 mL vessel, 12.6 mg (±0.1 mg) of NAL is weighed; to this, a 25 mL measuring pipet is used to add 20 mL of 100 mmol/L phosphate buffer (pH: 10.2); and the content is gently stirred using a test tube mixture to achieve dissolution (2 mmol/L NAL solution). 2) To a 500 mL vessel, 149.5 mL of this buffer is added using a 50 mL measuring pipet; to this, 0.5 mL of the above-described 2 mmol/L NAL solution is added; and the content is mixed by inversion to achieve 300-fold dilution (6.667 μmol/L).
(§7) The test substance undiluted solution is defined as an “undiluted solution”, and used. Incidentally, this “undiluted solution” may be appropriately diluted to, for example, 1/10, 1/100, or 1/1000, using an appropriate solvent, and the resultant solution may be used.
(§8) Subsequently, the solution having the maximum dissolution concentration is defined as an “undiluted solution”, and tested. Incidentally, this “undiluted solution” may be appropriately diluted to, for example, 1/10, 1/100, or 1/1000, using an appropriate solvent, and the resultant solution may be used.
(§9) The test substance is prepared at 1 mmol/L in any of solvents that are water, acetonitrile, acetone, and a 5 mass % dimethyl sulfoxide (DMSO)/acetonitrile solution and used as a test substance solution. As the solvent, a solvent in which the test substance dissolves at 1 mmol/L is used; when the test substance is soluble in a plurality of solvents, the solvent is selected in the following order of decreasing precedence: water, acetonitrile, acetone, and 5 mass % DMSO/acetonitrile.
(§10) Test substance solutions are prepared on a 96-well plate (U96 PP-0.5 ML NATURAL, Thermo Fisher Scientific Inc. (NUNC)) mainly using a 12-channel pipette, and a reagent is added in accordance with the following formula.
(§11) Nucleophilic reagent (NAC and NAL): 150 μL
(§12) Test substance solution: 50 μL
(§13) The plate is tightly sealed using a plate sealing (Resistant embossed seal, SHIMADZU GLC Ltd.), and stirred using a plate shaker (Titramax 100, Heidolph Instruments GmbH & CO. KG). The plate is subjected to spinning down using a centrifuge, and then to incubation at 25° C., for 24 hours, in a light-shielded state.
(§14) After the incubation for 24 hours, the plate sealing is removed; to each sample, 50 µL of the reaction stopping solution is added to stop the reaction.
(§15) The HPLC measurement conditions for the nucleophilic reagents are as follows.
(§16) From the average values (each, n=3) of peak areas of the post-reaction unreacted NAC or NAL and the blank-test (after performing the reaction step without addition of the test substances) NAC or NAL, the following formula is used to calculate the depletion percent of NAC or NAL.
(§17) NAL depletion percent (% depletion)=[1−(Average value of peak areas of post-reaction unreacted NAL/Average value of peak areas of blank-test (after performing the reaction step without addition of the test substances) NAL)]×100
(§18) The average value of peak areas of post-reaction unreacted NAL is the average value of areas obtained by measuring three times post-reaction unreacted NAL. The average value of peak areas of blank-test (after performing the reaction step without addition of the test substances) NAL is the average value of areas obtained by measuring three times blank-test (after performing the reaction step without addition of the test substances) NAL.
(§19) The reactions were each performed on a 96-well plate, and the number of samples of each case was set to n=3. In addition, as controls, reaction solutions including the solvent alone were prepared. The reaction solutions were prepared so as to have a NAC or NAL concentration of 5 μmon. To the reaction solutions after the lapse of 24 hours, a trifluoroacetic acid (TFA) aqueous solution was added such that the final concentration became 0.5% (v/v) TFA. Subsequently, HPLC was performed for measurements by two detection methods that were light absorption detection using a photodiode array (PDA) detector, and fluorescence detection using a fluorescence detector.

Data set [3] can be described thus: Average score of NAC and NAL depletion and prediction of skin allergenicity, fluorescence method. The note with it: for Average score: test substance solution 1 mmol/L; for determination of skin allergenicity from average score: criterion […]. How it is done: as §1, §2, §3, §4, §5
The conditions of data set [4]: cited from earlier work.
Data set [5] in a line: NAC depletion percent, HPLC-fluorescence detection. On the procedure: (§20) 1) To a 50 mL vessel, 11.6 mg (±0.1 mg) of NAC is weighed; to this, a 25 mL measuring pipet is used to add 20 mL of 100 mmol/L phosphate buffer (pH: 8.0); and the content is gently stirred using a test tube mixer to achieve dissolution (2 mmol/L). 2) To a 500 mL vessel, 149.5 mL of this buffer is added using a 50 mL measuring pipet; to this, 0.5 mL of the above-described 2 mmol/L NAC solution is added; and the content is mixed by inversion to achieve 300-fold dilution (6.667 μmon).
as §7, §8, §9, §10, §11, §12, §13, §14, §15, §16
(§21) NAC depletion percent (% depletion)=[1−(Average value of peak areas of post-reaction unreacted NAC/Average value of peak areas of blank-test (after performing the reaction step without addition of the test substances) NAC)]×100
(§22) The average value of peak areas of the post-reaction unreacted NAC is the average value of areas obtained by measuring three times post-reaction unreacted NAC. The average value of peak areas of blank-test (after performing the reaction step without addition of the test substances) NAC is the average value of areas obtained by measuring three times blank-test (after performing the reaction step without addition of the test substances) NAC.
as §19

The nature of data set [6]: NAC depletion percent, HPLC-UV detection (281 nm). On the procedure:
as §20, §7, §8, §9, §10, §11, §12, §13, §14, §15, §16, §21, §22, §19

A short description of data set [7]: NAL depletion percent, HPLC-UV detection (281 nm). How it is done:
as §6, §7, §8, §9, §10, §11, §12, §13, §14, §15, §16, §17, §18, §19

Setting [8] is: single substance, Reference (UV method).
Setting [9] is: single substance, test substance solution 1 mmol/L, fluorescence method.
Where [10] appears, read: single substance, fluorescence method.
The mark [11] stands for this setting: single substance, test substance solution 1 mmol/L, Reference (UV method).
The mark [12] stands for this setting: single substance, Reference (UV method), criterion average score […].
Where [13] appears, read: single substance, fluorescence method, criterion average score […].
Setting [14] is: Fluorescence method, non-allergenic substance.
The mark [15] stands for this setting: Reference (UV method), non-allergenic substance.
Setting [16] is: Reference (UV method), skin allergenicity prediction.
Setting [17] is: Fluorescence method, skin allergenicity prediction.
The mark [18] stands for this setting: 1/1 (undiluted solution), fluorescence method, 25° C. 24 hours.
Where [19] appears, read: 1/10 diluted solution, fluorescence method.
The mark [20] stands for this setting: 1/1 (undiluted solution), fluorescence method.
[21] abbreviates: 1/1 (undiluted solution), UV method.
The mark [22] stands for this setting: 1/10 diluted solution, UV method.

Structures are written as SMILES. Where two headings read alike, the source gives them in different places.

`O=c1[nH]sc2ccccc12` [1,2-Benzisothiazolin-3-one]: the Prediction result in data set [1] and in data set [3] was “S (key: S represents as being an allergenic substance; NS represents as being a non-allergenic substance)” each time. Further, the results for the Average score in data set [1] (setting [8]) and in data set [3] (setting [10]) were 50.2% and 49.5%, respectively. Further, the “NAL depletion (%)” value in data set [2] (setting [9]) was determined as 0.2%; in data set [7] (setting [11]) it was 0.4%. Further, the “EC3 (%)” value in data set [4] (in vivo) is reported as 2.3%. Also, the “NAC depletion (%)” value came out at 98.8% in data set [5] (setting [9]) and 100.0% in data set [6] (setting [11]).
For `CCC(=O)C=Cc1ccc(OC)cc1` [1-(4-Methoxyphenyl)-1-penten-3-one], the Prediction result in data set [1] (setting [12]) and in data set [3] (setting [13]) was “NS (NS represents as being a non-allergenic substance)” in each case. Also, the Average score was 2.9% in data set [1] (setting [8]) and 0.8% in data set [3] (setting [10]). Further, the “NAL depletion (%)” value in data set [2] (setting [9]) came to 0.4%; in data set [7] (setting [11]), 4.2%. Besides, the “EC3 (%)” value in data set [4] (known values, LLNA-test-based classification, − for non-allergenic substances) is reported as 9.3%. Further, the entries for the “NAC depletion (%)” value in data set [5] (setting [9]) and in data set [6] (setting [11]) were 1.2% and 1.6%, respectively.
For `CCCCO` [1-Butanol], the “NAL depletion (%)” value in data set [2] (setting [14]) is listed as 0.3%; in data set [7] (setting [15]), 0.8%. For the same molecule, the “EC3 (%)” value in data set [4] (in vivo) is given as “−”. Besides, the “NAC depletion (%)” value was determined as 2.1% in data set [5] (setting [14]) and 0.1% in data set [6] (setting [15]).
Take `C=O` [Formaldehyde]: the Prediction result in data set [1] and in data set [3] was “S (key: S represents as being an allergenic substance; NS represents as being a non-allergenic substance)” throughout. Besides, the “EC3 (%)” value in data set [4] (in vivo) was 0.61%.
For the molecule `CCCOC(=O)c1ccc(O)cc1` [Propylparaben], the entries for the “NAL depletion (%)” value in data set [2] (setting [14]) and in data set [7] (setting [15]) were 4.4% and 1.9%, respectively. The “EC3 (%)” value in data set [4] (in vivo) is listed as “−”. In addition, the “NAC depletion (%)” value turned out to be 0.5% in data set [5] (setting [14]) and 0.1% in data set [6] (setting [15]).
In the case of `Oc1cccc(O)c1` [Resorcinol], the Prediction result in data set [1] (setting [12]) and in data set [3] (setting [13]) was “NS (NS represents as being a non-allergenic substance)” throughout. Also, the Average score in data set [1] (setting [8]) is recorded as 3.1%; in data set [3] (setting [10]) it was 1.2%. Besides, the “NAL depletion (%)” value in data set [2] (setting [9]) came to 1.6%; in data set [7] (setting [11]), 2.2%. Moreover, the “NAC depletion (%)” value in data set [5] (setting [9]) is given as 0.8%; in data set [6] (setting [11]), 4.0%.
On to `O=C(O)c1ccccc1O` [Salicylic acid], for which the Prediction result in data set [1] (setting [16]) and in data set [3] (setting [17]) was “NS (NS represents as being a non-allergenic substance)” throughout. In addition, the figures for the “NAL depletion (%)” value in data set [2] (setting [14]) and in data set [7] (setting [15]) were 4.3% and 0.4%, respectively. For the same molecule, the “NAC depletion (%)” value is 0.1% in data set [5] (setting [14]) and 0.0% in data set [6] (setting [15]).
Regarding `Nc1ccc(S(N)(=O)=O)cc1` [Sulfanilamide], the Prediction result in data set [1] (setting [16]) and in data set [3] (setting [17]) was “NS (NS represents as being a non-allergenic substance)” throughout. For the same molecule, the “NAL depletion (%)” value in data set [2] (setting [14]) stood at 3.6%; in data set [7] (setting [15]) it was 1.4%. The “NAC depletion (%)” value was determined as 0.5% in data set [5] (setting [14]) and 0.0% in data set [6] (setting [15]).
As for `Nc1ccc(S(=O)(=O)O)cc1` [Sulfanilic acid], the Prediction result in data set [1] (setting [16]) and in data set [3] (setting [17]) was “NS (NS represents as being a non-allergenic substance)” throughout. For the same molecule, the entries for the “NAL depletion (%)” value in data set [2] (setting [14]) and in data set [7] (setting [15]) were 0.1% and 0.4%, respectively. Moreover, the “NAC depletion (%)” value is listed as 0.0% in data set [5] (setting [14]) and 0.5% in data set [6] (setting [15]).
In the case of `COc1cc(C=O)ccc1O` [Vanillin], the Prediction result in data set [1] (setting [16]) and in data set [3] (setting [17]) was “NS (NS represents as being a non-allergenic substance)” in each case. The “NAL depletion (%)” value in data set [2] (setting [14]) is listed as 0.0%; in data set [7] (setting [15]), 1.9%. The “NAC depletion (%)” value in data set [5] (setting [14]) is given as 2.0%; in data set [6] (setting [15]), 1.5%.
Consider `CC[C@H](CC[C@@H](C)[C@H]1CC[C@H]2[C@@H]3CC=C4C[C@@H](O)CC[C@]4(C)[C@H]3CC[C@]12C)C(C)C` [β-sitosterol, β-Sitosterol], for which the “Mean Depletion (%) (average score)” value in data set [1] (1/1 (undiluted solution)) is given as 0.0%; in data set [1] (1/10 diluted solution), 1.9%; in data set [3] (setting [20]) it was 0.1%; in data set [3] (setting [19]), 0.3%. Moreover, the “determination of skin allergenicity from average score” value in data set [1] (1/1 (undiluted solution)), in data set [1] (1/10 diluted solution), in data set [3] (setting [20]) and in data set [3] (setting [19]) was “not having skin allergenicity” each time. Also, the “NAL depletion (%)” value in data set [2] (setting [18]) amounted to 0.1%; in data set [2] (setting [19]) it was 0.0%; in data set [7] (setting [21]), 0.0%; in data set [7] (setting [22]), 0.0%. The “NAC depletion (%)” value in data set [5] (setting [18]) was 0.0%; in data set [5] (setting [19]), 0.6%; in data set [6] (setting [21]), 0.0%; in data set [6] (setting [22]), 3.9%.

Source of the values: patent publication US20210181109A1 (FUJIFILM Corporation, priority 2018, published 2021).
